Assay results: patent US20120021434A1, “METHOD FOR TREATING B CELL REGULATED AUTOIMMUNE DISORDERS” (Synta Pharmaceuticals Corp., priority 2005, published 2012)

Legend:
[1] = target: T1, c-Rel (Homo sapiens, UniProt Q04864); assay: Western blot of THP-1 nuclear extracts: c-Rel; assay type: cell-based
T1 construct: a western blot assay of THP1 nuclear c-Rel, p50 and p65 proteins was carried out; endogenous in cells; host or cells: THP-1; Jurkat
T1 sequence (Q04864 1-619): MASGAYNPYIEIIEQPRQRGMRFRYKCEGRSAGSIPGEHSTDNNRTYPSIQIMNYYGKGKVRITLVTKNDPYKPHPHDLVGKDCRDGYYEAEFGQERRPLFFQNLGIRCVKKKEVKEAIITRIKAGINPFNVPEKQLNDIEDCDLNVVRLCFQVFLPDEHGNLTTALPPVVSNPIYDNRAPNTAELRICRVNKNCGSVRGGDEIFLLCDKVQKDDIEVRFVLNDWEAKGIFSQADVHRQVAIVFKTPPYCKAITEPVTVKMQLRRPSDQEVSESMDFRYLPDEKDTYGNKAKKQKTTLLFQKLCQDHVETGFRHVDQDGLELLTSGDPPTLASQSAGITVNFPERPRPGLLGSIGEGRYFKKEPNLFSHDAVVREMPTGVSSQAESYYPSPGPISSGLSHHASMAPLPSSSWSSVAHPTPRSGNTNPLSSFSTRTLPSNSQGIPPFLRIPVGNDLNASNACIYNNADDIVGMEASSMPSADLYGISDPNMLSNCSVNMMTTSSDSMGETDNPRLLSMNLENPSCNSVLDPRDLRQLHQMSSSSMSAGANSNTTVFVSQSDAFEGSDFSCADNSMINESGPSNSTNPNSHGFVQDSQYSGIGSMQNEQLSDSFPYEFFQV
Protocol: The THP-1 cell, Jurkat cell and RAW264.7 cell line were obtained from American Type Culture Collection (Manassas, Va.). The THP-1 Jurkat cells were cultured in RPMI 1640 (ATCC, Manassas, Va.), supplemented with 10% FCS (ATCC, Manassas, Va.), and 1% penicillin/Streptomycin (Gibco-BRL, New York, N.Y.). The RAW264.7 cells were cultured in DMEM (ATCC, Manassas, Va.) supplemented with 10% FCS (ATCC, Manassas, Va.), and 1% penicillin/Streptomycin (Gibco-BRL, New York, N.Y.). The cells were stimulated with human or murine recombinant IFNγ (100 ng/ml) for 10 h followed by LPS (1 μg/ml) or SAC (0.025%) CpG ([…]) in the presence or absence of Compound 50 at different concentrations for an additional incubation.
THP-1 cells were suspended in 20 volumes of buffer A containing 10 mM KCl, 10 mM HEPES (pH 7.9), 1 mM MgCl2, 1 mM dithiothreitol (DTT), 0.1% Nonidet p40 (NP-40), and 0.5 mM phenylmethylsulfonyl fluoride (PMSF) and homogenized and centrifuged at 10,000 rpm at 4C afor 5 min. Nuclear pellets were then suspended in buffer C containing 400 mM NaCl, 20 mM HEPES 9, pH 7.9), 15 mM MgCl2, 0.2 mM EDTA, 1 mM DTT, 25% glycerol, 1 mM PMSF, and 10 ug of leupeptin, 20 ug of pepstatin, and 10 ug/ml antipain, incubated for 30 min at 4C, and centrifuged at 14,000 rpm for 20 min. The supernatants were dialyzed against buffer D containing 100 mM NaCl, 20 mM HEPES (pH 7.9), 20% glycerol, 1 mM PMSF, and 1 mM DTT.
The 10% SDS Polyacrylamide gels (Inveitrogen) were transferred to Pure Nitrocellulose membrane (BioRed, Hercules, Calif.). The membranes were blocked with 5% milk in TBST buffer and incubated with anti-c-Rel, anti-p65, anti-p50, anti-ICSBP or anti-PU-1 antibody (all the antibodies were purchased from Santa Cruz) at a dilution of 1:500 for 1 h at room temperature or overnight at 4C. […]
Of the transcription factors that have been analyzed, two factors, ICSBP and c-Rel, seem to be affected by Compound 4/Compound 50 treatment. […]

[2] = test system: IκBα; assay: Inducible degradation of IκBα (Western blot and FACS); assay type: cell-based; conditions: IFN-γ/LPS or IFN-γ/SAC, 500 nM, 30 min and 2 hrs
Protocol: IκB degradation is one of the steps in the signaling pathway of NF-κB dependent genes. The activity of Compound 50 in inducible degradation of IκBα and IκBβ was investigated in THP-1 cells using Western blot and FACS analysis. […] Similar results were observed from the Compound 50 pre-treatment samples in which Compound 50 was added 30 min before stimulation.

- level of nuclear c-Rel ([1]; THP-1 nuclear extracts, IFN-γ plus LPS or IFN-γ plus SAC, post-treatment level equal to or below non-stimulated level): significantly reduced
- transcription factor c-Rel affected by treatment ([1]; of the transcription factors analyzed): affected
SMILES: Cc1cccc(/C=N/Nc2cc(N3CCOCC3)nc(OCCc3ccccn3)n2)c1 [Compound 50, N-(3-Methyl-benzylidene)-N′-[6-morpholin-4-yl-2-(2-pyridin-2-yl-ethoxy)-pyrimidin-4-yl]-hydrazine]
- amount of IκBα in the cytoplasm, with vs without compound [2]: no significant difference
